Laboratory results from patent US5763435A, “Sulfate conjugates of ursodeoxycholic acid, and their beneficial use in inflammatory disorders” (priority 1995, dated 1998).
Where “and” joins values, the source holds several entries; their conditions need not be identical. Identical values can stand only once.

What was measured:
[1] = test system: chemically induced colon cancer; conditions: in vivo; cited from earlier work
[2] = Plasma UDCA concentration after oral administration; assay type: in vivo, Sprague-Dawley rats; conditions: read-out: Unconjugated plasma UDCA concentration
Protocol: Male Sprague-Dawley rats (Harlan Sprague-Dawley, Inc., Indianapolis, Ind.), weighing 210-290 g, were maintained on a 12-hour light-dark cycle and fed standard laboratory chow ad libitum for 3 days. The animals were then transferred to metabolic cages in which they were housed individually and fed the same diet. UDCA, UDCA 3-sulfate, UDCA 7-sulfate, and UDCA 3,7-disulfate were administered by gavage at a dose of 250 mg/day for 4 consecutive days. Each group comprised 3-6 rats. Body weights of the animals were measured each day. On day 5, the animals were killed by exsanguination under ether anesthesia. Plasma was collected and frozen at -20° C. […]
In each group, urine from all animals was pooled on the individual days of collection. […] After the addition of nordeoxycholic acid (1 μg), bile acids were quantitatively extracted from portions of urine (3 mL) and plasma (1 mL) using Bond-Elut C18 cartridges. […]
GC-MS analysis was performed using a Finnigan 4635 mass spectrometer (Finnigan Inc., San Jose, Calif.) that housed an identical gas chromatography column operated under the same conditions. Electron ionization (70 eV) mass spectra were recorded over the mass range of 50-800 daltons by repetitive scanning of the eluting components. […]
Data are expressed as mean±SEM or as mean values of all animals when extracts were pooled before analysis. […]

bile-flow = assay: Bile-flow and bile acid secretion during i.v. infusion; assay type: in vivo, Sprague-Dawley rats; conditions: for Bile flow, maximum / Bile salt output (biliary bile acid secretion rate), maximum: i.v. infusion 0.5, 1.0, 2.0 μmol/min/100 g, mean ± SEM, six animals; for Apparent choleretic activity (slope of regression line): bile acid secretion rate vs bile-flow
Protocol: (§1) Adult male Sprague-Dawley rats (body weight 200-230 g) were anesthetized by an intraperitoneal injection of pentobarbital (Nembutal, 7.5 mg/100 g body weight), and maintained under sedation by additional doses. The right jugular vein and the common bile duct were cannulated using PE-50 polyethylene tubing (Clay-Adams, Parsippany, N.J.). Body temperature was maintained throughout the experiment at 37° C. using a rectal probe and a thermostatically controlled heating pad (Harvard Apparatus Co., Inc., Millis, Mass.). Saline was infused at a rate of 1.0 ml/h using a Harvard pump (Harvard Apparatus Co., Inc.) into the jugular vein for a control period of 2h. After collecting two 10 minute bile samples for base-line analysis, the bile acids were individually infused intravenously (i.v.) for 30 minutes in stepwise increasing doses (0.5, 1.0, and 2.0 μmol/min/100 g body weight). Bile acid solutions were prepared in 3% human albumin in 0.45% saline. Six animals were used for each experiment and bile was collected every 10 minutes into preweighed tubes. At the end of the experiment, blood was obtained by cardiac puncture, and urine was obtained by aspiration of the bladder. All biological specimens were stored at -20° C. This animal study protocol (#1 B 10044) was approved by the Bioethics committee of the Children's Hospital Medical Center (Cincinnati, Ohio).
(§2) Bile volume was determined gravimetrically assuming a density of 1 g/ml. Total 3α-hydroxy bile acid concentration in the bile was measured enzymatically before solvolysis (nonsulfated bile acids) and after solvolysis (total bile acids) (Mashige, F., et al., Direct spectrometry of total bile acids in serum. Clin. Chem. 27: 1352-1356 (1981)). The bile acid output was calculated by multiplying the rate of bile-flow by the bile acid concentration. Biliary phospholipids were determined by an enzymatic procedure based on the choline oxidase method (Nippon Shoji Kaisha, Ltd., Osaka, Japan) (Grantz, D., et al., Enzymatic measurement of choline-containing phospholipids in bile. J. Lipid Res. 22: 273-276 (1981)). Cholesterol was also measured enzymatically (Boehringer Mannehim, Indianapolis, Ind.) (Fromm, H., et al., Use of a simple enzymatic assay for cholesterol analysis in human bile. J. Lipid Res. 21: 259-261 (1980)).
(§3) Results were expressed as mean±standard error of mean (SEM). Bile-flow and biliary lipid output were expressed as μl /min/g liver and nmol/min/g liver, respectively. Statistical analysis was made using INSTAT program (Graphpad Software Inc., San Diego, Calif.). Parametric data among groups were analyzed using Student's t-test. The statistical comparisons between the different groups were made by one-way analysis of variance (ANOVA). […] Linear regression analysis was performed. The choleretic activity of each bile acid was determined from the slope of regression line of the correlation between the bile acid secretion rate and bile-flow and was expressed as […]. Comparisons between slopes were made by one-way ANOVA.

serum liver enzymes = conditions: oral administration; cited from earlier work
biliary lipid secretion = assay: Biliary lipid (cholesterol, phospholipid) secretion during i.v. infusion; assay type: in vivo, Sprague-Dawley rats; conditions: for Cholesterol output, maximal change / Phospholipid output, maximal change: mean ± SEM, six animals
Protocol: as §1, §2, §3

SMILES | Effect in colon cancer models (in words) [1] | concentration [2] | Bile flow, maximum (bile-flow) | Bile salt output (biliary bile acid secretion rate), maximum (bile-flow) | Apparent choleretic activity (slope of regression line) (bile-flow; i.v. infusion) | Serum liver enzymes (in words) (serum liver enzymes) | Biliary cholesterol secretion (in words) (biliary lipid secretion) | Biliary phospholipid secretion (in words) (biliary lipid secretion) | Cholesterol output, maximal change (biliary lipid secretion) | Phospholipid output, maximal change (biliary lipid secretion) | Choleretic effect / order of maximum bile-flow (in words) (bile-flow; i.v. infusion)
C[C@H](CCC(=O)O)[C@H]1CC[C@H]2[C@@H]3[C@@H](O)C[C@@H]4C[C@H](O)CC[C@]4(C)[C@H]3CC[C@]12C [UDCA, 3 alpha, 7 beta-dihydroxy-5 beta-cholan-24oic acid, reference compound] | beneficial effects | 4.8 ± 2.2 µM | 4.88 ± 0.16 μl/min/g liver | 145.10 ± 17.30 nmol/min/g liver and 145.1±17.3 nmol/min/g liver | 16 ± 2 µL/µmol | significant improvement in serum liver enzymes | significant decline | increased significantly | 1.88 ± 0.19 nmol/min/g liver | 17.20 ± 1.90 nmol/min/g liver | 
C[C@H](CCC(=O)O)[C@H]1CC[C@H]2[C@@H]3[C@@H](O)C[C@@H]4C[C@H](OS(=O)(=O)O)CC[C@]4(C)[C@H]3CC[C@]12C [UDCA-3S, ursodeoxycholic acid 3-sulfate] |  |  | 3.34 ± 0.13 μl/min/g liver | 138.90 ± 11.80 nmol/min/g liver and 138.9±11.8 nmol/min/g liver | 13 ± 1 µL/µmol |  | significantly reduced the biliary cholesterol output | significant reduction in biliary phospholipids | 0.40 ± 0.02 nmol/min/g liver and 0.40±0.05 nmol/min/g liver | 4.00 ± 0.50 nmol/min/g liver | less effective in stimulating bile-flow than unconjugated UDCA
C[C@H](CCC(=O)O)[C@H]1CC[C@H]2[C@@H]3[C@@H](OS(=O)(=O)O)C[C@@H]4C[C@H](O)CC[C@]4(C)[C@H]3CC[C@]12C [UDCA-7S, ursodeoxycholic acid 7-sulfate] |  |  | 5.83 ± 0.31 μl/min/g liver | 255.40 ± 18.20 nmol/min/g liver and 255.4±18.2 nmol/min/g liver | 15 ± 1 µL/µmol |  | cholesterol secretion was maintained | increased significantly | 1.76 ± 0.23 nmol/min/g liver and 1.76±0.21 nmol/min/g liver | 15.00 ± 1.70 nmol/min/g liver | 
C[C@H](CCC(=O)O)[C@H]1CC[C@H]2[C@@H]3[C@@H](OS(=O)(=O)O)C[C@@H]4C[C@H](OS(=O)(=O)O)CC[C@]4(C)[C@H]3CC[C@]12C [UDCA-DS, ursodeoxycholic acid 3,7-disulfate] |  |  | 5.92 ± 0.21 μl/min/g liver | 222.40 ± 24.30 nmol/min/g liver and 222.4±24.3 nmol/min/g liver | 16 ± 1 µL/µmol |  | significantly reduced the biliary cholesterol output | significant reduction in biliary phospholipids | 0.37 ± 0.07 nmol/min/g liver and 0.37±0.12 nmol/min/g liver | 2.50 ± 0.30 nmol/min/g liver | 
